Assay results reported in US20120308567A1, “USE OF TYROSINE KINASE INHIBITORS FOR TREATMENT OF PROLACTINOMA” (CEDARS-SINAI MEDICAL CENTER, priority 2010, published 2012).
“Also recorded” adds a separate entry of the source.

Key:
[1] = test system: HER2CA GH3 tumors; test: HER2CA GH3 subcutaneous tumors in Wistar-Furth rats; assay type: in vivo, rat; conditions: for suppression of postmortem tumor weight / suppression of serum PRL levels / HER2CA tumor volume: Wistar-Furth rats; for suppression of postmortem tumor weight / suppression of serum PRL levels: 100 mg/kg daily oral gavage; for HER2CA tumor volume: 100 mg/kg daily oral gavage from day 3 after inoculation, vehicle 924±48
Description: B-C. […] (B). Tumor weights were measured after euthanasia (C). Serum PRL levels were measured by RIA (D), and ex vivo Realtime PCR performed (E). Tumor volumes were calculated using the formula, π/6×large diameter×small diameter^2.
In accordance with Institutional Animal Care and Use Committee guidelines, 4-5 wk old female Wistar-Furth rats (Harlan Sprague Dawley, Inc.) were inoculated with pcDNA3 (n=6) or HER2CA (n=6) cells (3×10^6 cells/rat). Rats were fed with a commercial pelleted diet ad libitum and tap water. Tumor volumes were measured with a caliper and calculated using the formula, π/6×large diameter×small diameter^2 as previously described (8). […] 500 μl blood was collected twice for hormone assessment (before inoculation, 2 days after inoculation) by retro-orbital bleeding. This procedure was performed under isoflurane inhalational anesthesia via a nose cone connected to a rodent anesthesia machine (Kent Scientific Corporation). On the last treatment day (day 7), rats were euthanized within 3 h of drug administration. Cardiac blood was collected with 18-gauge syringes and tumors excised and weighed. Fragments of each tumor were fixed in formalin and embedded in paraffin for immunohistochemical staining, preserved in RNA later solution (Ambion) for subsequent RNA extraction and frozen in liquid nitrogen for subsequent protein extraction.
To evaluate in vivo effects of HER2 overexpression on lactosomatotroph tumor growth, HER2CA or pcDNA3 transfectants were inoculated subcutaneously into female Wistar-Furth rats. […] Next, the effects of lapatinib administration on tumor growth and hyperprolactinemia were examined. […] After euthanasia, tumors were excised and immediately weighed and processed.

[2] = test system: GH3 cells stably expressing HER2CA; test: Realtime PCR of PRL and GH mRNA in GH3 stable transfectants; assay type: cell-based, rat; conditions: for suppression of PRL expression: Her2CA-GH3 cells
Description: A. […] C. GH and PRL secretion in the culture medium determined by RIA. Hormone secretion levels were normalized for cell numbers, Values are mean±SEM. *p<0.05, **p<0.01. […] GH3 rat lacto-somatotroph tumor cells secreting PRL and GH were purchased from the American Type Culture Collection. HER2CA cells were generated by transfection with […]) purchased from Addgene (Addgene plasmid 16259). Stable colonies were selected in the presence of 500 μg/ml G418 (Invitrogen). A vector control cell line pcDNA3 was simultaneously established by transfecting pcDNA3 that lacked inserted cDNA. […] After synchronization by serum starvation (medium containing 0.2% bovine serum albumin for 24 h), cells with treatment agents was grown in fresh serum-depleted medium (0.2% bovine serum albumin), and samples collected at the indicated times. Total RNA was extracted with Trizol reagent (Invitrogen) according to instructions of the manufacturer. The amount and the integrity of RNA were assessed by measurement of absorbance at 260 and 280 nm. Total RNA was reverse-transcribed into first-strand cDNA using iScript cDNA synthesis kit (Bio-Rad Laboratories, Inc.) according to the manufacturer. Quantitative PCR reactions were carried out in the iQ5 Multicolor Real-time PCR Detection System (Bio-Rad Laboratories, Inc.) as described (8). […] Primer sequences (Invitrogen) were [NT] rRNA forward ([…] rRNA reverse ([NT] (human (3-actin [NT] (human (3-actin […]).

[3] = test system: estrogen induced pituitary lactotroph tumor; test: Estrogen induced pituitary lactotroph tumor in Fischer-344 rats; assay type: in vivo, rat; conditions: F344 rats
Description: 17β-estradiol-filled capsules or empty capsule were inoculated subcutaneously in F344 rats (4-5 weeks of age) for one month. A. Western blotting analysis was performed using collected pituitary or pituitary tumor. Next 17β-estradiol-filled capsules were inoculated subcutaneously in F344 rats (4-5 weeks of age) for 2 months. After capsule excision, oral vehicle or lapatinib was administered for 2 weeks. […] C. Tumor weights were measured after euthanasia. D. Serum PRL and GH levels were measured by RIA.
Next, 4-5 wk ovariectomized female Fishcer-344 rats (Harlan Sprague Dawley, Inc.) were s.c. implanted with an 17β-estradiol-filled […] brand capsule (Dow Corning Corp., Medical Grade Tubing Special; length, 3 cm; od, 0.125 in.; id, 0.062 in.) under isoflurane inhalational anesthesia. Two months thereafter, when serum PRL levels reached 3000 ng/ml, 17β-estradiol-filled capsules were extracted, and animals were treated with lapatinib (100 mg/kg) or vehicle (0.5% methylcellose, 0.5% tween80/PBS; 100 μl) via oral gavage twice a day for 2 weeks. 500 μl blood was collected for hormone assessment by retro-orbital bleeding under isoflurane inhalational anesthesia. On the last treatment day (day 14), rats were euthanized within 3 h of drug administration. Cardiac blood was collected and pituitary tumors excised and weighed. Fragments of each tumor were fixed in formalin and embedded in paraffin, preserved in RNA later solution, or frozen in liquid nitrogen.
Next, the inventors tested Fischer-344 rats treated with 17β-estradiol as a model for pituitary prolactinomas (24). […] The inventors then extracted the capsule, and initiated oral lapatinib or vehicle treatment for a subsequent 2 weeks.

[4] = test system: EGF-induced HER2 and MAPK autophosphorylation; test: Western blotting of EGF-induced ErbB signaling and intracellular PRL in HER2CA GH3 cells; assay type: cell-based, rat
Description: GH3 rat lacto-somatotroph tumor cells secreting PRL and GH were purchased from the American Type Culture Collection. HER2CA cells were generated by transfection with pcDNA3-HER2CA (V654E) purchased from Addgene (Addgene plasmid 16259). Stable colonies were selected in the presence of 500 μg/ml G418 (Invitrogen). A vector control cell line pcDNA3 was simultaneously established by transfecting pcDNA3 that lacked inserted cDNA. After selection and propagation of stable transfectants, cells were cultured in DMEM/F12 medium containing 15% horse serum, 2.5% FBS, penicillin/streptomycin, and 500 μg/m G418. After synchronization by serum starvation (medium containing 0.2% bovine serum albumin for ˜24 h), cells with treatment agents was grown in fresh serum-depleted medium (0.2% bovine serum albumin), and samples collected at the indicated times.
Proteins were separated on 4 to 12% NuPAGE Bis-Tris gels and electro-transferred for 3 h to polyvinylidene difluoride membranes (Invitrogen). Membranes were blocked for 1 h in 5% nonfat dry milk or 5% bovine serum albumin in TBS-T buffer, and incubated overnight with primary antibody. The following primary antibodies were used: anti-pErk1/2, anti-Erk1/2, anti-Akt, anti-pEGFR (Tyr1068), anti-EGFR, anti-pHER3/ErbB3 (Tyr1289), and anti-Cleaved Caspase-3 from Cell Signaling Technology, anti-pNeu (Tyr1248), anti-Neu (C-18), anti-HER3/ErbB3, anti-PRL, and anti-GAPDH from Santa Cruz Biotechnology, and anti-pAkt (Ser473) from Abcam. After washing with TBS-T, membranes were incubated with peroxidase-conjugated secondary antibody for 1 h (5% nonfat dry milk or 5% bovine serum albumin in TBS-T buffer).

[5] = 100 mg/kg oral gavage twice a day for 2 weeks

Row | Compound | suppression of postmortem tumor weight [1] [%] | suppression of serum PRL levels [1] [%] | HER2CA tumor volume [1] [mm^3] | suppression of PRL expression [2] [%] | change in Her2CA-GH3 tumor size ([1]; rats, after one week of treatment) [%] | serum GH levels [3, 5] | suppression of serum PRL levels [3, 5] [%] | suppression of tumor weight ([3]; 100 mg/kg oral gavage twice a day for 2 weeks after capsule extraction) [%] | pituitary tumor growth induced by estrogen ([3]; oral treatment for 2 weeks) | intracellular PRL levels ([4]; Western blotting) | attenuation of Her1/EGFR and Her2/Neu signaling (HER2 and MAPK autophosphorylation) ([4]; pretreated 0.1-10 μM 45 min, EGF 5 nM 10 min) | PRL mRNA levels ([2]; HER2CA GH3 cells, 1 μM)
1 | COc1cc2ncnc(Nc3ccc(F)c(Cl)c3)c2cc1OCCCN1CCOCC1 [gefitinib] | ~30 | ~40 | 695±63 | ~50 | – | – | – | – | – | – | – | –
2 | CS(=O)(=O)CCNCc1ccc(-c2ccc3ncnc(Nc4ccc(OCc5cccc(F)c5)c(Cl)c4)c3c2)o1 [lapatinib, Lapatinib] | ~40 | ~50 | 549±45 | ~70 | −40 | not altered | ~35 | ~35 | attenuated | decreased | attenuated EGF-induced HER2 and MAPK autophosphorylation more markedly than gefitinib; also recorded: blocked | more marked suppression
